Entries after “also recorded” stand apart in the source; their conditions may differ.
Experiments:
gastrointestinal mucosa [1] = details: male, Wistar, rat, in vivo, 6 h
Experimental: Gastric lesions induced by administration of the compounds of the invention in the confront of the corresponding drug precursor.
The animals have been sacrificed 6 hours after the administration. The gastrointestinal mucosa has been removed and inspected. The incidence of the gastrointestinal damage has been evaluated as described in experiment F1.

[2] = system: human endothelial cells of the umbilical vein; assay: Test 2 (CIP): apoptosis (DNA fragmentation) induced by cumene hydroperoxide in endothelial cells; type: cell-based; details: drug 10^-4 M, CIP 5 mM; for activity at 100 µM: Homo sapiens, Endothelial cell, 1 h, read-out: Apoptosis % with respect to the controls treated only with CIP; for activity at 100 µM / Apoptosis % with respect to the controls treated only with CIP: one hour
Experimental: Test 2 (CIP): Protection parameter of endothelial cell against the oxidative stress induced by cumene hydroperoxide (CIP).
Human endothelial cells of the umbilical vein are prepared according to an usual standard procedure. Fresh umbilical veins are filled with a 0.1% by weight collagenase solution and incubated at 37° C. for 5 minutes.
The cells are collected from the perfusate by centrifugation and harvested in culture flasks T-75, pretreated with human fibronectin. The cells are then harvested in the same medium, further added with 10 ng/ml of bovine hypothalamic growth factor. When the cells of the primary cell culture (i.e. that directly obtained from ex-vivo) form a single layer of confluent cells (about 8,000,000 cells/flask), the culture is stopped and the layers washed and trypsinized. The cellular suspensions are transferred into the wells of a cell culture plate having 24 wells, half of which is then additioned with the same culture medium containing the drug at a 10^−4M concentration, and harvested in a thermostat at 37° C. at a constant moisture. Only the cells coming from said first sub-cultures are used for the experiments with cumene hydroperoxide (CIP).
Before starting the test, the cellular culture medium is removed and the cellular layers are carefully washed with a physiologic solution at a temperature of 37° C. The wells of the culture plate are then incubated for one hour with CIP at a 5 mM concentration in the culture medium. […] 5 replicates for each sample are carried out.
Human endothelial cells of the umbilical vein are prepared according to a standard method. Fresh umbilical veins are filled with a collagenase solution 0.1% by weight and incubated at 37° C. for 5 minutes.
The cells are collected from the perfusate by centrifugation at 800 rpm and harvested in culture flasks T-75, pretreated with human fibronectin. Cells are then harvested in the same medium, added with bovine hypothalamic growth factor (100 ng/ml). When the cells of the primary cell culture (the cells directly removed from ex-vivo umbilical vein) form a single layer of confluent cells (about 8,000,000 cells/flask), harvesting is stopped and the layers are washed and trypsinized. The cellular suspensions are transferred into wells of a culture plate having 24 wells, half of said wells being added with the same culture medium containing the drug at a 10^−4M concentration, and harvested in a thermostat at 37° C. at a constant moisture (90%), CO2=5%. When the drug is not soluble in the culture medium, it is formerly dissolved in a small amount of dimethylsulphoxide. The maximum amount of dimethylsulphoxide which can be added to the culture medium is 0.5%. Only the cells coming from these first subcultures are used for the tests with cumene hydroperoxide (CIP).
Before starting the test, the cellular culture medium is removed and the cellular layers are carefully washed with a standard physiologic solution buffered with phosphate 0.1 M pH 7.0, at the temperature of 37° C. The content of each well is then incubated for one hour with a CIP suspension in the culture medium at a 5 mM concentration. Evaluation of the cellular damage (apoptosis) is carried out by determining the percent variation of the DNA fragmentation in the cultures containing the drug+CIP with respect to the controls treated with CIP only. […] The fluorescence of each sample was determined on 5 replicates. Statistic evaluation has been made with t Student test (p<0.01).

[3] = system: gastrointestinal mucosa, liver (GPT), vascular endothelium (blood pressure); details: rat, in vivo; for Gastroenteropathy % without L-NAME: 4 weeks
Experimental: The endothelial dysfunction is evaluated by determining the damage to the gastrointestinal mucosa, the hepatic damage and blood hypertension induced by administration of L-NAME.
The animals (rats) are divided in groups as herein below shown. The group receiving L-NAME is treated for 4 weeks with said compound dissolved at a concentration of 400 mg/liter in drinking water. The following groups are constituted (No. 10 animals for group):
(§1) • 1° group: only carrier (aqueous suspension 1% w/v of carboxymethylcellulose, dose: 5 ml/Kg when the drug is administered by os, physiologic solution when administered parenterally), • 2° group: carrier+L-NAME, B) Groups Administered with the Drug: • 3° group: carrier+drug, • 4° group: carrier+drug+L-NAME.
The administration routes are those known for the drug, and can be the oral or subcutaneous, intraperitoneal, intravenous or intramuscular route. […] The drug is administered once a day for 4 weeks.
At the end of the four weeks treatment access to water is prevented and after 24 hours the animals are sacrificed.
One hour before the sacrifice blood-pressure is determined, and a blood pressure increase is taken as an evaluation of the damage to vascular endothelium. […] The hepatic damage is determined by evaluation of the glutamic-pyruvic transaminase (GPT increase) after sacrifice.
Test 3—experimental in vivo model with N^w-nitro-L-arginine-methyl ester (L-NAME): gastric tolerability (gastrointestinal damage incidence), hepatic (GPT dosage, glutamic-pyruvic transaminase) and cardiovascular (blood pressure) of some drugs screened as precursors of the compounds of the invention.
The endothelial dysfunction is evaluated by determining the damage induced by L-NAME administration to the gastrointestinal mucosa, the hepatic damage (GPT increase), and the vascular endothelium or cardiovascular damage as blood hypertension.
The animals (rats, average weight 200 g) are divided in groups as herein below described. The group receiving L-NAME is treated for 4 weeks with said compound dissolved at the concentration of 400 mg/liter in drinking water. The following groups (No. 10 animals for group) are constituted:
as §1, with “group: treatment:” for “group:”, “by parenteral route),” for “administered parenterally),”, “Treated” for “Administered”
Each drug is administered once a day for 4 weeks.
The maximum tolerated dose of the drug being administered to the animals is determined by evaluating, in a separate dose scaling up experiment on untreated animals, the appearance in the animals of symptoms such as enteropathy, diarrhoea, depression, tremor, sedation.
At the end of the four weeks access to water is prevented and after 24 hours the animals are sacrificed.
One hour before the sacrifice blood pressure is determined and a blood pressure increase is taken as an indication of a damage being occurred to vascular endothelium.
The hepatic damage is determined by evaluation after the sacrifice of the glutamic-pyruvic transaminase (GPT increase).
The % gastric lesions have been determined as in Test 1.

gastrointestinal mucosa [4] = details: rats; for Gastro-enteropathy (% incidence) without NEM: maximum tolerated dose
Experimental: The animals (rats) are distributed in the following groups (no. 10 animals for group):
• 1° group: treatment: only carrier (aqueous suspension 1% w/v of carboxymethylcellulose, dose: 5 ml/Kg when the drug is administered by os, or a physiologic solution when parenterally administered, i.e. by subcutaneous, intraperitoneal, intravenous or intermuscular route), • 2° group: treatment: carrier as above defined+NEM, B) Groups Treated with the Drug: • group I: treatment: carrier+drug, • group II: treatment: carrier+drug+NEM.
The administration routes are those known for the drug, and can be the oral or subcutaneous, intraperitoneal, intravenous or intramuscular route.
The animals are sacrificed after 24 hours and then one proceeds to the evaluation of the damage to the gastrointestinal mucosa.
Test 1—experimental model in vivo with N-ethylmaleimide (NEM): study of the gastric tolerability of some drugs screened as precursors of the compounds of the invention.
The animals (rats, weight about 200 g) are distributed in the following groups (No. 10 animals for group):
• 1° group: treatment: only carrier (aqueous suspension 1% w/v of carboxymethylcellulose, dose: 5 ml/Kg when the drug is administered by os, physiologic solution when by parenteral route), • 2° group: treatment: carrier+NEM, B) Groups Administered with Each Drug: • group I: treatment: carrier+drug, • group II: treatment: carrier+drug+NEM.
The drug is administered one hour later, in suspension in the carrier. Animals are sacrificed after 24 hours and evaluation of the damage to the gastrointestinal mucosa is made by counting the number of rats, inside each group, with lesions to the stomach at a visual inspection. The total number of said rats is then divided by the total number of rats of the group and multiplied by 100.

erythrocytes = assay: Test 4A: inhibition of erythrocyte haemolysis induced by cumene hydroperoxide; details: 2 mM

O=C(CCCO[N+](=O)[O-])NCCCC(O)(P(=O)(O)O)P(=O)(O)O [Example 4, [4-[4-(nitroxy)butyroyl]amino-1-hydroxybutylidene]biphosphonic acid]
Gastropathy % incidence (gastrointestinal mucosa [1]): 10%

CC1(C)S[C@@H]2[C@H](NC(=O)[C@H](N)c3ccccc3)C(=O)N2[C@H]1C(=O)O [ampicilline]
inhibition of apoptosis induced by CIP (in words, p<0.01) [2]: do not significantly inhibit apoptosis

O=C(O)COCCN1CCN(C(c2ccccc2)c2ccc(Cl)cc2)CC1 (centres unmarked) [Cetirizine, cetirizine]
inhibition of apoptosis induced by CIP (in words, p<0.01) [2]: do not significantly inhibit apoptosis

NC(=O)c1cccnc1 [Nicotinamide]
inhibition of apoptosis induced by CIP (in words, p<0.01) [2]: do not significantly inhibit apoptosis

COc1cccc2c1C(=O)c1c(O)c3c(c(O)c1C2=O)C[C@@](O)(C(=O)CO)C[C@@H]3O[C@H]1C[C@H](N)[C@H](O)[C@H](C)O1 [Doxorubicin, doxorubicin]
activity at 100 µM [2]: 94% | Blood pressure % without L-NAME [3]: 120% | GPT % without L-NAME [3]: 195% | Gastroenteropathy % without L-NAME [3]: 30%

COc1ccc2c(c1)c(CC(=O)O)c(C)n2C(=O)c1ccc(Cl)cc1 [Indomethacin]
Gastro-enteropathy (% incidence) without NEM (gastrointestinal mucosa [4]; 24 hours): 0% | inhibition of apoptosis induced by CIP (in words, p<0.01) [2]: not significantly different with respect to that of the controls | inhibition of apoptosis induced by CIP (in words, p<0.01) ([2]; listed as indomethacin): do not significantly inhibit apoptosis

Nc1ccc(O)c(C(=O)O)c1 [Mesalamine]
Gastro-enteropathy (% incidence) without NEM (gastrointestinal mucosa [4]; 24 hours): 0% | inhibition of apoptosis induced by CIP (in words, p<0.01) [2]: inhibit apoptosis; also recorded: inhibits the apoptosis induced by CIP

COC(=O)[C@H](c1ccccc1Cl)N1CCc2sccc2C1 [Clopidogrel]
inhibition of apoptosis induced by CIP (in words, p<0.01) [2]: do not significantly inhibit apoptosis | Apoptosis % with respect to the controls treated only with CIP [2]: 110%

OCCNCCO [Diethanolamine]
inhibition of haemolysis induced by cumene hydroperoxide (in words) (erythrocytes): does not inhibit haemolysis | % Haemolysis inhibition (erythrocytes; preincubated 30 minutes, cumene hydroperoxide 270 μM, at Tmax): 2.5%

salbutamol
inhibition of apoptosis induced by CIP (in words, p<0.01) [2]: do not significantly inhibit apoptosis | Apoptosis % with respect to the controls treated only with CIP [2]: 90%

CCCCC(C)(O)C/C=C/[C@H]1[C@H](O)CC(=O)[C@@H]1CCCCCCC(=O)OC (mixture of isomers) [Misoprostol]
Gastro-enteropathy (% incidence) without NEM (gastrointestinal mucosa [4]; 24 hours): 0% | Blood pressure % without L-NAME [3]: 100% | GPT % without L-NAME [3]: 100% | Gastroenteropathy % without L-NAME [3]: 0%

Nc1c(Br)cc(Br)cc1CN[C@H]1CC[C@H](OC(=O)CCCO[N+](=O)[O-])CC1 [Example 3, 4-(nitroxy)butyric acid 4-[(2-amino-3,5-dibromophenyl)methylamino] trans cyclohexyl ester]
Gastropathy % incidence (gastrointestinal mucosa [1]): 10%

enalapril
inhibition of apoptosis induced by CIP (in words, p<0.01) [2]: do not significantly inhibit apoptosis | Apoptosis % with respect to the controls treated only with CIP [2]: 80%

CCC(C)(C)C(=O)O[C@H]1C[C@@H](C)C=C2C=C[C@H](C)[C@H](CCC3CC(O)CC(=O)O3)[C@H]21 (some centres unmarked) [Simvastatin, simvastatine]
activity at 100 µM [2]: 72%

Nc1nc2c(ncn2COCCO)c(=O)[nH]1 [Acyclovir, aciclovir]
inhibition of apoptosis induced by CIP (in words, p<0.01) [2]: do not significantly inhibit apoptosis | Apoptosis % with respect to the controls treated only with CIP [2]: 95%

Nc1c(Br)cc(Br)cc1CN[C@H]1CC[C@H](O)CC1 [Ambroxol, ambroxol]
Gastro-enteropathy (% incidence) with NEM (gastrointestinal mucosa [4]; NEM 25 mg/kg s.c. one hour before drug, 24 hours): 80% | gastrointestinal damages / gastric lesions in rats treated with NEM + drug (in words) (gastrointestinal mucosa [4]; NEM 25 mg/kg s.c., drug at maximum tolerated dose): showed gastric lesions | Gastro-enteropathy (% incidence) without NEM (gastrointestinal mucosa [4]; 24 hours): 0% | inhibition of apoptosis induced by CIP (in words, p<0.01) [2]: inhibit apoptosis | Gastropathy % incidence (gastrointestinal mucosa [1]): 60%

O=C(CCCO[N+](=O)[O-])Nc1c2c(nc3ccccc13)CCCC2 [Example 11]
Gastropathy % incidence (gastrointestinal mucosa [1]): 20%

COc1ccc2[nH]c([S+]([O-])Cc3ncc(C)c(OC)c3C)nc2c1 (centres unmarked) [Omeprazol]
Gastro-enteropathy (% incidence) without NEM (gastrointestinal mucosa [4]; 24 hours): 0% | inhibition of apoptosis induced by CIP (in words, p<0.01) [2]: do not significantly inhibit apoptosis | Blood pressure % without L-NAME [3]: 100% | GPT % without L-NAME [3]: 100% | Gastroenteropathy % without L-NAME [3]: 0%

O=C(O)Cc1ccccc1Nc1c(Cl)cccc1Cl [Diclofenac, diclofenac]
Gastropathy % incidence (gastrointestinal mucosa [1]): 70%
